Experimental findings from patent US20260217712A1, “SOLID STATE FORMS OF MNK INHIBITORS” (4E Therapeutics, Inc., priority 2023, published 2026) are described below.

“And” between values parts separate entries of the source, which are not always exact repeats. Equal values may be shown once. Where a name gives a salt, the structure may show the parent alone.

What all share (assay type): physicochemical
Data set [1] is described as follows: Static storage at 40° C./75% RH, XRPD and HPLC post storage. To be noted: 7 days.
Assay in data set [2]: as above
To be noted: for XRPD post storage at 40° C./75% RH / HPLC purity post storage at 40° C./75% RH: 7 days; for stability to storage at 40° C./75% RH (in words): 40° C./75% RH (elevated temperature and humidity). The method, then: Purity analysis was performed on an Agilent HP1100/Infinity II 1260 series system equipped with a diode array detector and using OpenLAB software. The full method details are provided below:
Poorly Crystalline Structure (I) (from Lot A, Free Form Pattern 1, 30 mg) was dissolved in 50 volumes of THF:Water 9:1 at 60° C. in 13 vials, stirring at 500 RPM (small amount of debris present). The solutions were then treated with 1.1 molar equivalents (90/180 μL) of selected counter-ions (Table 7). The resulting solutions were then cooled down to 5° C. at 0.1° C./min and were held at this temperature for 2 days. The suspensions were filtered and dried under suction for 20 min. The gummed sample was left with the cap off to promote crystallization. All solids obtained were initially analyzed by XRPD and stored in glass HPLC vials for subsequent analysis.
Any solids obtained were analyzed by XRPD, ^1H NMR, HPLC, TGA, DSC, XRPD post storage at 40° C./75% RH after 7 days & IC if necessary. Additional microscopy techniques (PLM & HSM) were used to complement the above analysis where appropriate.

A short description of data set [3]: Competitive slurries of Pattern 3 and Pattern 11, XRPD. To be noted: for XRPD after 7 days / XRPD after 17 days: competitive slurry, solvent and temperature per sample; for XRPD after 7 days: 20 vol. The method, then: A solid mixture of Structure (I) Pattern 3 (from Lot B, 300 mg) and Pattern 11 (Sample 35-1, 300 mg) was mixed for 3 hours using a turbula mixer.
The solid mixture (30 mg) was suspended in solvent (dried with molecular sieves, 600 μL, 20 vol) and either stirred in the fridge, shaken at RT or 55° C. After 7 days, an aliquot of each suspension was analyzed by XRPD. Samples that were still a mixture of forms were placed back into fridge/shakers for a further 10 days and re-analyzed (results shown in Table 36).
Competitive slurry experiments at 55° C., along with one at 5° C., were repeated using a saturated solution as the solvent mixture to minimize dissolution that may have occurred at temperatures other than room temperature.
A saturated solution of THF/Water (9:1) (5 mL) with Structure (I) (from Lot B) was equilibrated at 55° C. overnight in a shaker. The solution was filtered using 0.45 μm nylon filter before use.
A solid mixture of Pattern 3 and Pattern 11 (30 mg) was suspended in the saturated solution (600 μL, 20 vol) and either stirred in the fridge (5° C.) or shaken at 55° C. After 1 day, aliquots of the suspensions were analyzed by XRPD. Both samples were placed back into fridge/shaker. After a total of 11 days, the samples were removed from fridge/shaker. Sample 38-2 was filtered before XRPD, Sample 38-1 was pipetted onto the XRPD holder and allowed to dry before analysis (solid passed through filter).

Data set [4] in a line: High temperature solubility assessment. The arrangement: key: T = turbid solution; X = suspension. To be noted: for observation at 60° C.: 30 mg in 50 volumes of the sample's solvent; for observation at 70° C. / observation at 80° C. / observation at 85° C.: 50 volumes. Here is the method: Due to low solubility observed in the experiments of Example 2, a second solubility assessment of Structure (I) from Lot A was carried out using higher temperatures closer to the boiling points of the selected solvent systems (Table 10). Once at temperature, phosphoric acid or a base was added to either promote formation of a phosphate or Na/K salt.
Structure (I) (from Lot A, Free Form Pattern 1, 30 mg) was weighed into 6 HPLC vials and a stirrer bar added to each one. 50 volumes of different solvents were added to the samples according to Table 10 and the samples heated incrementally on a Polar Bear heating block, stirring at 400 RPM. Observations were noted as the temperature was increased, holding at each temperature for 10 minutes.

Take `Cc1cc(Nc2cc(N)ncn2)c(=O)n2c1C(=O)NC21CCC2(CC2)CC1` [Pattern 4]: the “XRPD post storage at 40° C./75% RH” value in data set [1] (listed as 27-1) is recorded as “Change in form—Pattern 3”; in data set [2] it was “converted to Pattern 3”.

As for `Cc1cc(Nc2cc(N)ncn2)c(=O)n2c1C(=O)NC21CCC2(CC2)CC1` [Pattern 36-12], the “XRPD after 7 days” value in data set [3] is on record as “Pattern 11”.

On to `Cc1cc(Nc2cc(N)ncn2)c(=O)n2c1C(=O)NC21CCC2(CC2)CC1` [Pattern 36-5], for which the “XRPD after 7 days” value in data set [3] is given as “Pattern 11”.

With `Cc1cc(Nc2cc(N)ncn2)c(=O)n2c1C(=O)NC21CCC2(CC2)CC1` [MES Pattern 2], the “XRPD post storage at 40° C./75% RH” value is “storage, with no observed impact” in data set [1] (listed as 21-1) and “Unchanged” in data set [1] (listed as 22-6). Further, in data set [2] (listed as 22-6), the “HPLC purity post storage at 40° C./75% RH” value is listed as 99.1%. Moreover, in data set [2] (listed as 21-1), the “change of chemical purity on storage at 40° C./75% RH (in words)” value is recorded as “Notable increase in purity after”.

As to `Cc1cc(Nc2cc(N)ncn2)c(=O)n2c1C(=O)NC21CCC2(CC2)CC1` [Pattern 10-7], in data set [4], the “observation at 60° C.” value was “T” and the “observation at 70° C.” value is “T”.

Regarding `Cc1cc(Nc2cc(N)ncn2)c(=O)n2c1C(=O)NC21CCC2(CC2)CC1` [Pattern 10-4], in data set [4], the “observation at 60° C.” value was “X”, the “observation at 70° C.” value is “X”, the “observation at 80° C.” value is recorded as “X” and the “observation at 85° C.” value is on record as “X”.

For the molecule `Cc1cc(Nc2cc(N)ncn2)c(=O)n2c1C(=O)NC21CCC2(CC2)CC1` [Pattern 36-11], in data set [3], the “XRPD after 7 days” value is listed as “Pattern 11 + extra”.

For the molecule `Cc1cc(Nc2cc(N)ncn2)c(=O)n2c1C(=O)NC21CCC2(CC2)CC1` [Pattern 36-13], in data set [3], the “XRPD after 7 days” value is “Patterns 3 and 11”; the “XRPD after 17 days” value was “Patterns 3 and 11”.

Turning to `Cc1cc(Nc2cc(N)ncn2)c(=O)n2c1C(=O)NC21CCC2(CC2)CC1` [FUM Pattern 1], the “XRPD post storage at 40° C./75% RH” value in data set [1] (listed as 9-10) was “Fumarate Pattern 1”. In data set [2], the “change of chemical purity on storage at 40° C./75% RH (in words)” value was “slight uplift” and the “stability to storage at 40° C./75% RH (in words)” value is “stable to storage”. Further, in data set [2] (listed as 9-10), the “HPLC purity post storage at 40° C./75% RH” value stood at 98.8%.

Turning to `Cc1cc(Nc2cc(N)ncn2)c(=O)n2c1C(=O)NC21CCC2(CC2)CC1` [Pattern 36-14], in data set [3], the “XRPD after 7 days” value was “Patterns 3 and 11”; the “XRPD after 17 days” value is “Patterns 3 and 11”.

Turning to `Cc1cc(Nc2cc(N)ncn2)c(=O)n2c1C(=O)NC21CCC2(CC2)CC1` [CIT Pattern 1], the “XRPD post storage at 40° C./75% RH” value in data set [1] (listed as 9-11) is “Citrate Pattern 1”. For the same molecule, the “HPLC purity post storage at 40° C./75% RH” value in data set [2] (listed as 9-11) was found to be 98.8%.

On to `Cc1cc(Nc2cc(N)ncn2)c(=O)n2c1C(=O)NC21CCC2(CC2)CC1` [Pattern 38-1], for which the “XRPD after 1 day” value in data set [3] (slurry in saturated THF/Water (9:1) solution) is “Patterns 3 and 11 +”.

Consider `Cc1cc(Nc2cc(N)ncn2)c(=O)n2c1C(=O)NC21CCC2(CC2)CC1` [Pattern 36-3], for which, in data set [3], the “XRPD after 7 days” value is “Patterns 3 and 11”; the “XRPD after 17 days” value was “Patterns 3 and 11”.

Take `Cc1cc(Nc2cc(N)ncn2)c(=O)n2c1C(=O)NC21CCC2(CC2)CC1` [Pattern 36-6]: the “XRPD after 7 days” value in data set [3] was “Pattern 11”.

`Cc1cc(Nc2cc(N)ncn2)c(=O)n2c1C(=O)NC21CCC2(CC2)CC1` [Pattern 36-1]: the “XRPD after 7 days” value in data set [3] is “Pattern 11”.

With `Cc1cc(Nc2cc(N)ncn2)c(=O)n2c1C(=O)NC21CCC2(CC2)CC1` [Pattern 36-15], in data set [3], the “XRPD after 7 days” value is “Patterns 3 and 11”; the “XRPD after 17 days” value is “Pattern 11”.

Consider `Cc1cc(Nc2cc(N)ncn2)c(=O)n2c1C(=O)NC21CCC2(CC2)CC1` [Pattern 5], for which the “XRPD post storage at 40° C./75% RH” value in data set [1] (listed as 30-2) is “transition completed and 7 days: Change in form-Pattern 3”.

In the case of `Cc1cc(Nc2cc(N)ncn2)c(=O)n2c1C(=O)NC21CCC2(CC2)CC1` [BES Pattern 1], in data set [2], the “stability to storage at 40° C./75% RH (in words)” value is “not stable to storage”. Moreover, the “HPLC purity post storage at 40° C./75% RH” value in data set [2] (listed as 9-6) worked out at 98.8%.

As for `Cc1cc(Nc2cc(N)ncn2)c(=O)n2c1C(=O)NC21CCC2(CC2)CC1` [Pattern 10-1], in data set [4], the “observation at 60° C.” value was “X” and the “observation at 70° C.” value is recorded as “X”.

On to `Cc1cc(Nc2cc(N)ncn2)c(=O)n2c1C(=O)NC21CCC2(CC2)CC1` [Pattern 10-2], for which, in data set [4], the “observation at 60° C.” value was “X”, the “observation at 70° C.” value is reported as “X”, the “observation at 80° C.” value is “X” and the “observation at 85° C.” value is “X”.

As to `Cc1cc(Nc2cc(N)ncn2)c(=O)n2c1C(=O)NC21CCC2(CC2)CC1` [Pattern 36-2], in data set [3], the “XRPD after 7 days” value is listed as “Pattern 11”.

With `Cc1cc(Nc2cc(N)ncn2)c(=O)n2c1C(=O)NC21CCC2(CC2)CC1` [PHO Pattern 2], in data set [2], the “HPLC purity post storage at 40° C./75% RH” value is given as “crystallinity. 97.0% purity observed” and the “XRPD post storage at 40° C./75% RH” value was “lost a significant amount of crystallinity”.

`Cc1cc(Nc2cc(N)ncn2)c(=O)n2c1C(=O)NC21CCC2(CC2)CC1` [HCl Pattern 4]: the “stability to storage at 40° C./75% RH (in words)” value in data set [2] is “instability to storage”. Also, in data set [2] (listed as 13-2), the “HPLC purity post storage at 40° C./75% RH” value is listed as “frit are not present. 95.7% purity”.

Consider `Cc1cc(Nc2cc(N)ncn2)c(=O)n2c1C(=O)NC21CCC2(CC2)CC1` [TOS Pattern 1], for which the “XRPD post storage at 40° C./75% RH” value in data set [2] was “large loss in crystallinity”. The “HPLC purity post storage at 40° C./75% RH” value in data set [2] (listed as 9-4) is 99.3%.

For the molecule `Cc1cc(Nc2cc(N)ncn2)c(=O)n2c1C(=O)NC21CCC2(CC2)CC1` [Pattern 10-3], in data set [4], the “observation at 60° C.” value is “X”, the “observation at 70° C.” value is listed as “X”, the “observation at 80° C.” value is “X” and the “observation at 85° C.” value is reported as “X”.

As for `Cc1cc(Nc2cc(N)ncn2)c(=O)n2c1C(=O)NC21CCC2(CC2)CC1` [Pattern 22-8], in data set [2], the “HPLC purity post storage at 40° C./75% RH” value is given as 99.4% and the “XRPD post storage at 40° C./75% RH” value is given as “SUL P2”.

For the molecule `Cc1cc(Nc2cc(N)ncn2)c(=O)n2c1C(=O)NC21CCC2(CC2)CC1` [Pattern 10-8], in data set [4], the “observation at 60° C.” value is listed as “T” and the “observation at 70° C.” value is reported as “T”.

In the case of `Cc1cc(Nc2cc(N)ncn2)c(=O)n2c1C(=O)NC21CCC2(CC2)CC1` [Pattern 36-7], the “XRPD after 7 days” value in data set [3] is reported as “Pattern 11”.

`Cc1cc(Nc2cc(N)ncn2)c(=O)n2c1C(=O)NC21CCC2(CC2)CC1` [Pattern 10-5]: in data set [4], the “observation at 60° C.” value is recorded as “X”, the “observation at 70° C.” value was “X”, the “observation at 80° C.” value is reported as “X” and the “observation at 85° C.” value is recorded as “X”.

Consider `Cc1cc(Nc2cc(N)ncn2)c(=O)n2c1C(=O)NC21CCC2(CC2)CC1` [Pattern 2], for which the “HPLC purity post storage at 40° C./75% RH” value in data set [2] (listed as 9-12) turned out to be 98.8%.

As for `Cc1cc(Nc2cc(N)ncn2)c(=O)n2c1C(=O)NC21CCC2(CC2)CC1` [Pattern 10-6], in data set [4], the “observation at 60° C.” value was “T” and the “observation at 70° C.” value is “T”.

For the molecule `Cc1cc(Nc2cc(N)ncn2)c(=O)n2c1C(=O)NC21CCC2(CC2)CC1` [Pattern 36-4], the “XRPD after 7 days” value in data set [3] is “Pattern 11”.
